The target in experiment [1] is T1, AR BF3 binding pocket and Bag-1L (Homo sapiens, UniProt P10275).
T1 sequence (P10275 1-920): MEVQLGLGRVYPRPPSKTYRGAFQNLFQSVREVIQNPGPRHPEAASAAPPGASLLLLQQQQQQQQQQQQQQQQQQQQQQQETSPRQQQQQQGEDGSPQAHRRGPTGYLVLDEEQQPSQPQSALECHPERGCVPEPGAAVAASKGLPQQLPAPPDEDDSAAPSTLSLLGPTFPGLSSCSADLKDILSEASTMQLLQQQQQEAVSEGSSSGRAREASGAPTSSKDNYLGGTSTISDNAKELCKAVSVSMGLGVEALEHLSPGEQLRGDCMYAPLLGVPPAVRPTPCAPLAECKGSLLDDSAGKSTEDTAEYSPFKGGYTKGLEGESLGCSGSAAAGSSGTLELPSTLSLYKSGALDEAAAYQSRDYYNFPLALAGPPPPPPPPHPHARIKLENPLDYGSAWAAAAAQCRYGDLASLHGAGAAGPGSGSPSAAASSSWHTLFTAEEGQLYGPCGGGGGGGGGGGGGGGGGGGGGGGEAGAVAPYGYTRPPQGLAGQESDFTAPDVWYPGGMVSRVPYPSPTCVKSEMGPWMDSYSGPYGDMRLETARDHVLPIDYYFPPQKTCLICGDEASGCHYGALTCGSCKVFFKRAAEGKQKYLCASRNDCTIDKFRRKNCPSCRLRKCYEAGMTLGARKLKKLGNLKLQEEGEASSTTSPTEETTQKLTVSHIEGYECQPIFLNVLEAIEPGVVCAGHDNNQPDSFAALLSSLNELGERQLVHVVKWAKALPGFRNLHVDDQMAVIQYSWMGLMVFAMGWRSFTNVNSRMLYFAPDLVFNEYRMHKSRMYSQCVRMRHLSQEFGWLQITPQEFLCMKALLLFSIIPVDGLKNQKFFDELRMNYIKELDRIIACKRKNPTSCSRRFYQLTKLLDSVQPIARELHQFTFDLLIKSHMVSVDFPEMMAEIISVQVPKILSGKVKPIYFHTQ
The conditions noted are these: cited from earlier work.

Experiment [2] deals with flies expressing human AR52Q in pan-neuronal tissues (ELAV>UAS-AR52Q). Kind of experiment: Viability of SBMA flies (rescue of DHT-induced lethality). Type of experiment: in vivo, Drosophila. The conditions noted are these: flies reared on food containing 1 mM DHT and compound (TA, MEPB 0 to 400 μM). From the text: UAS-AR52Q, UAS-AR52Q-K720A, and UAS-AR66Q-E897K fly stocks were generated as previously described^8. Fly stocks were crossed to various GAL4 driver lines (ELAV-GAL4 for pan-neuronal, OK371-GAL4 for motor neuron, GMR-GAL4 for eye) to induce expression of the AR transgene in a tissue-specific manner in fly vials containing fly food with either vehicle (1% ethanol +/−0.1% DMSO) or drugs. Upon the presence of progeny, parental flies were removed, and F1 flies were scored for phenotypic analysis. Viability was determined as previously described^40. Briefly, the population frequency of adult F1 SBMA flies (ELAV>UAS-AR52Q or OK371>UAS-AR52Q) and control flies (GAL4-ELAV; CyO-GFP) were determined by the presence or absence of the CyO phenotypic marker. At least three independent biological replicates (F0 crosses) were performed with new drug/food preparations for each treatment group, and a total of at least 50 flies were scored for each treatment group. To determine locomotor activity of SBMA flies, adult F1 flies (OK371>UAS-AR52Q) reared on food containing vehicle or drug were allowed to walk for 90 seconds in one well of a 12-well tissue culture plate while video was recorded using a Leica M205C stereomicroscope and Leica DFC320 digital camera. Videos were recorded for at least 15 flies per treatment group. Tracing of fly movement and analysis of displacement and velocity were performed using ImageJ software. Preparation and staining of larval neuromuscular junctions and ventral ganglions were performed as previously described^8.

Take `Cc1cccc(C)c1OCCSc1nc2ccccc2[nH]1` [CPD49, 2-((2-(2,6-dimethylphenoxy)ethyl)thio)-1H-benzimidazole]: the BF3-Bag-1L binding entry in experiment [1] was “inhibited”.
Turning to `CC(C)Cc1ccc(C(C)C(=O)O)cc1` (centres unmarked) [ibuprofen], the SBMA fly viability result in experiment [2] is “did not”.
